From US8778871B2 (Takeda Pharmaceutical Company Limited, priority 2004, dated 2014)
Non-standard residues stand in square brackets, D forms with d. *: point of attachment. Arg(NO2) = N=C(NCCC[C@H](N)C(=O)O)N[N+](=O)[O-]; 2Nal = N[C@@H](Cc1ccc2ccccc2c1)C(=O)O; d2Nal = N[C@H](Cc1ccc2ccccc2c1)C(=O)O; Cyclohexanecarbonyl = O=C(C1CCCCC1)*; Arg(Me) = CNC(=N)NCCC[C@H](N)C(=O)O; Lys(Me2) = CN(C)CCCC[C@H](N)C(=O)O; hArg = N=C(N)NCCCC[C@H](N)C(=O)O; hPhe = N[C@@H](CCc1ccccc1)C(=O)O; 2Thi = N[C@@H](Cc1cccs1)C(=O)O; Cha = N[C@@H](CC1CCCCC1)C(=O)O; NMeN = CN[C@@H](CC(N)=O)C(=O)O; aThr = C[C@H](O)[C@H](N)C(=O)O; Tos = Cc1ccc(S(=O)(=O)*)cc1; NMeS = CN[C@@H](CO)C(=O)O; Abu = CC[C@H](N)C(=O)O; Dap = NC[C@H](N)C(=O)O; Bz = O=C(c1ccccc1)*; azaGly = NNC(=O)O; For = O=C*

These substances were tested against T1, hOT7T175 (Homo sapiens, UniProt Q969F8, L364H). Conditions: hOT7T175/CHO, FLIPR, evaluation for 40 seconds after initiation of the reaction.
T1 construct: expressed in transfected cells
T1 sequence (Q969F8 whole entry L364H): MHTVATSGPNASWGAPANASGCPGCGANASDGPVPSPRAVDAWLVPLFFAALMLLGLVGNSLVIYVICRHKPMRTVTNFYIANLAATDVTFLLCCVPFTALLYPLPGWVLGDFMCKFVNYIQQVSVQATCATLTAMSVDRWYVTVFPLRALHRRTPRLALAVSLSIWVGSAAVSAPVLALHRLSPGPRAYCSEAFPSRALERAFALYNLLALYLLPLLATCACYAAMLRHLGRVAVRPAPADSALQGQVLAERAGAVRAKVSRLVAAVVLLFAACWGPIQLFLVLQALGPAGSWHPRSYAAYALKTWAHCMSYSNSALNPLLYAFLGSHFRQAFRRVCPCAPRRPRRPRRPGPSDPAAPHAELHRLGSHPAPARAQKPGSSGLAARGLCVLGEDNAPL
Format: cell-based
Protocol: The intracellular Ca ion level-increasing activity was measured using FLIPR as in TEST EXAMPLE 2.
With “Ac-[d2Nal][dW]NTF[azaGly]L[Arg(Me)]W-NH2 [Compound No. 620]” the “Specific Act. (EC50/MS10 EC50)” value was 1.7.
With “Ac-[dE][dW]NTF[azaGly]L[Arg(Me)]W-NH2 [Compound No. 622]” the “Specific Act. (EC50/MS10 EC50)” value was 2.8.
In the case of “Ac-[dR][dY][dW]NTF[azaGly]L[Arg(Me)]W-NH2 [Compound No. 568]”, the “Specific Act. (EC50/MS10 EC50)” value is reported as 0.6.
With “Ac-[dY]WNT[dF][azaGly]L[Arg(Me)]W-NH2 [Compound No. 586]” the “Specific Act. (EC50/MS10 EC50)” value was 0.3.
“Ac-[dY][dT]NTF[azaGly]L[Arg(Me)]W-NH2 [Compound No. 628]” was tested, and the “Specific Act. (EC50/MS10 EC50)” value was 4.4.
In the case of “Ac-[dY][dW]D(NHMe)TF[azaGly]L[Arg(Me)]W-NH2 [Compound No. 702]”, the “Specific Act. (EC50/MS10 EC50)” value is reported as 0.6.
“Ac-[dY][dW]DTF[azaGly]L[Arg(Me)]W-NH2 [Compound No. 647]” was tested, and the “Specific Act. (EC50/MS10 EC50)” value was 10.6.
For “Ac-[dY][dW]NS(Me)F[azaGly]L[Arg(Me)]W-NH2 [Compound No. 580]”, the “Specific Act. (EC50/MS10 EC50)” value was 0.6.
“Ac-[dY][dW]NTA[azaGly]L[Arg(Me)]W-NH2 [Compound No. 631]” was tested, and the “Specific Act. (EC50/MS10 EC50)” value was 2.
With “Ac-[dY][dW]NTE[azaGly]L[Arg(Me)]W-NH2 [Compound No. 634]” the “Specific Act. (EC50/MS10 EC50)” value was 10.5.
“Ac-[dY][dW]NTF[azaGly]A[Arg(Me)]W-NH2 [Compound No. 641]” was tested, and the “Specific Act. (EC50/MS10 EC50)” value was 3.5.
For “Ac-[dY][dW]NTF[azaGly]F[Arg(Me)]W-NH2 [Compound No. 643]”, the “Specific Act. (EC50/MS10 EC50)” value was 2.5.
With “Ac-[dY][dW]NTF[azaGly]LKW-NH2 [Compound No. 639]” the “Specific Act. (EC50/MS10 EC50)” value was 2.
In the case of “Ac-[dY][dW]NTF[azaGly]LR(Et)W-NH2 [Compound No. 609]”, the “Specific Act. (EC50/MS10 EC50)” value is reported as 0.9.
“Ac-[dY][dW]NTF[azaGly]LR(Tos)W-NH2 [Compound No. 604]” was tested, and the “Specific Act. (EC50/MS10 EC50)” value was 6.3.
With “Ac-[dY][dW]NTF[azaGly]L[Arg(Me)][hPhe]-NH2 [Compound No. 594]” the “Specific Act. (EC50/MS10 EC50)” value was 2.1.
In the case of “Ac-[dY][dW]NTF[azaGly]L[Arg(NO2)]W-NH2 [Compound No. 605]”, the “Specific Act. (EC50/MS10 EC50)” value is reported as 3.9.
In the case of “Ac-[dY][dW]NTF[azaGly]L[Lys(Me2)]W-NH2 [Compound No. 610]”, the “Specific Act. (EC50/MS10 EC50)” value is reported as 1.9.
“Ac-[dY][dW]NTF[azaGly]L[hArg]W-NH2 [Compound No. 645]” was tested, and the “Specific Act. (EC50/MS10 EC50)” value was 1.1.
“Ac-[dY][dW]NTF[azaGly]S[Arg(Me)]W-NH2 [Compound No. 644]” was tested, and the “Specific Act. (EC50/MS10 EC50)” value was 2.5.
“Ac-[dY][dW]NTK[azaGly]L[Arg(Me)]W-NH2 [Compound No. 633]” was tested, and the “Specific Act. (EC50/MS10 EC50)” value was 3.4.
With “Ac-[dY][dW]NTL[azaGly]L[Arg(Me)]W-NH2 [Compound No. 632]” the “Specific Act. (EC50/MS10 EC50)” value was 1.1.
“Ac-[dY][dW]NT[2Nal][azaGly]L[Arg(Me)]W-NH2 [Compound No. 694]” was tested, and the “Specific Act. (EC50/MS10 EC50)” value was 1.7.
With “Ac-[dY][dW]NT[2Thi][azaGly]L[Arg(Me)]W-NH2 [Compound No. 695]” the “Specific Act. (EC50/MS10 EC50)” value was 0.7.
“Ac-[dY][dW]NT[Cha][azaGly]L[Arg(Me)]W-NH2 [Compound No. 696]” was tested, and the “Specific Act. (EC50/MS10 EC50)” value was 0.5.
“Ac-[dY][dW]NT[dF]GL[Arg(Me)]W-NH2 [Compound No. 601]” was tested, and the “Specific Act. (EC50/MS10 EC50)” value was 3.1.
“Ac-[dY][dW]NT[dF][azaGly]L[Arg(Me)]W-NH2 [Compound No. 597]” was tested, and the “Specific Act. (EC50/MS10 EC50)” value was 0.6.
With “Ac-[dY][dW]N[NMeS]F[azaGly]L[Arg(Me)]W-NH2 [Compound No. 656]” the “Specific Act. (EC50/MS10 EC50)” value was 2.9.
For “Ac-[dY][dW]N[aThr]F[azaGly]L[Arg(Me)]W-NH2 [Compound No. 659]”, the “Specific Act. (EC50/MS10 EC50)” value was 0.6.
With “Ac-[dY][dW]N[dT]F[azaGly]L[Arg(Me)]W-NH2 [Compound No. 654]” the “Specific Act. (EC50/MS10 EC50)” value was 2.9.
“Ac-[dY][dW]QSF[azaGly]L[Arg(Me)]W-NH2 [Compound No. 576]” was tested, and the “Specific Act. (EC50/MS10 EC50)” value was 0.8.
In the case of “Ac-[dY][dW]SSF[azaGly]L[Arg(Me)]W-NH2 [Compound No. 577]”, the “Specific Act. (EC50/MS10 EC50)” value is reported as 0.7.
With “Ac-[dY][dW]TSF[azaGly]L[Arg(Me)]W-NH2 [Compound No. 578]” the “Specific Act. (EC50/MS10 EC50)” value was 0.8.
“Ac-[dY][dW][Abu]SF[azaGly]L[Arg(Me)]W-NH2 [Compound No. 573]” was tested, and the “Specific Act. (EC50/MS10 EC50)” value was 0.7.
With “Ac-[dY][dW][Dap](Ac)SF[azaGly]L[Arg(Me)]W-NH2 [Compound No. 584]” the “Specific Act. (EC50/MS10 EC50)” value was 0.4.
For “Ac-[dY][dW][Dap](For)SF[azaGly]L[Arg(Me)]W-NH2 [Compound No. 585]”, the “Specific Act. (EC50/MS10 EC50)” value was 0.4.
With “Ac-[dY][dW][Dap]SF[azaGly]L[Arg(Me)]W-NH2 [Compound No. 701]” the “Specific Act. (EC50/MS10 EC50)” value was 1.4.
“Ac-[dY][dW][NMeN]TF[azaGly]L[Arg(Me)]W-NH2 [Compound No. 655]” was tested, and the “Specific Act. (EC50/MS10 EC50)” value was 4.7.
“Ac-[dY][dW][dN]TF[azaGly]L[Arg(Me)]W-NH2 [Compound No. 653]” was tested, and the “Specific Act. (EC50/MS10 EC50)” value was 1.3.
With “Amidino-D-Trp-Asn-Thr-Phe-AzaGly-Leu-Arg(Me)-Trp-NH2 (Amidino-[dW]NTF[azaGly]L[Arg(Me)]W-NH2) [Compound No. 679]” the “Specific Act. (EC50/MS10 EC50)” value was 1.8.
For “Amidino-D-Tyr-D-Trp-Asn-Thr-Phe-AzaGly-Leu-Arg(Me)-Trp-NH2 [Compound No. 614]”, the “Specific Act. (EC50/MS10 EC50)” value was 0.8.
“Arg-Arg-D-Tyr-D-Pya(4)-Asn-Ser-Phe-AzaGly-Leu-Arg(Me)-Trp-NH2 [Compound No. 537]” was tested, and the “Specific Act. (EC50/MS10 EC50)” value was 4.7.
For “Arg-D-Tyr-D-Pya(4)-Asn-Ser-Phe-AzaGly-Leu-Arg(Me)-Trp-NH2 [Compound No. 536]”, the “Specific Act. (EC50/MS10 EC50)” value was 1.8.
With “Benzoyl-D-Trp-Asn-Thr-Phe-AzaGly-Leu-Arg(Me)-Trp-NH2 (Bz-[dW]NTF[azaGly]L[Arg(Me)]W-NH2; SMILES CNC(=N)NCCC[C@H](NC(=O)[C@H](CC(C)C)NC(=O)NNC(=O)[C@H](Cc1ccccc1)NC(=O)[C@@H](NC(=O)[C@H](CC(N)=O)NC(=O)[C@@H](Cc1c[nH]c2ccccc12)NC(=O)c1ccccc1)[C@@H](C)O)C(=O)N[C@@H](Cc1c[nH]c2ccccc12)C(N)=O) [Compound No. 669]” the “Specific Act. (EC50/MS10 EC50)” value was 0.5.
For “Bz-NTF[azaGly]L[Arg(Me)]W-NH2 [Compound No. 522]”, the “Specific Act. (EC50/MS10 EC50)” value was 1.9.
For “Cyclohexanecarbonyl-D-Trp-Asn-Thr-Phe-AzaGly-Leu-Arg(Me)-Trp-NH2 (Cyclohexanecarbonyl-[dW]NTF[azaGly]L[Arg(Me)]W-NH2; SMILES CNC(=N)NCCC[C@H](NC(=O)[C@H](CC(C)C)NC(=O)NNC(=O)[C@H](Cc1ccccc1)NC(=O)[C@@H](NC(=O)[C@H](CC(N)=O)NC(=O)[C@@H](Cc1c[nH]c2ccccc12)NC(=O)C1CCCCC1)[C@@H](C)O)C(=O)N[C@@H](Cc1c[nH]c2ccccc12)C(N)=O) [Compound No. 668]”, the “Specific Act. (EC50/MS10 EC50)” value was 1.2.
